# Source: patent publication US20030125242A1, “Polypeptides comprising multimers of nuclear localization signals or of protein transduction domains and their use for transferring molecules into cells” (priority 1999, published 2003)
# Where no end group is shown, it is not given here.
# Key:
# HeLa S6 cells [1] = test: nuclear transport of BSA covalently linked to peptide in digitonin permeabilized cells; format: cell-based; settings: 600 nM peptide/BSA-BODIPY, 30 min, fluorescence microscope
# HeLa S6 cells [2] = test: fluorescence in situ hybridisation of plasmid pEGFP after transfection (fluorescence microscopy and CLSM); format: cell-based; settings: for location of plasmid DNA by CLSM: confocal laser scanning microscopy; for nuclear localization of plasmid DNA / cells showing signals in the nuclear region: fluorescence microscopy
# 16HBE14o-cells [3] = test: luciferase transfection assay with vector/DNA (CMVL-W) complexes; format: cell-based
# 16HBE14o-cells [4] = test: inhibition of gene transfer by excess of free peptide, luciferase assay; format: cell-based; settings: 30 fold molar excess of free peptide added 20 min before the complexes
# 16HBE14o cells = test: tracking of DNA-TOTO-3/(PKKKRKVG)4-FITC complexes on their way to the nucleus; format: cell-based; settings: 100% confluent cells, 5 μg CMVL-W, 24 μg peptide (N/P 8)
# DNase I = test: stability of vector/DNA complexes against DNase I digestion, agarose gel; format: physicochemical; settings: higher enzyme concentrations (2.5, 5, 10 U DNase I), 1 h at 37° C., 3 μg pEGFP
# 16HBE14o-cells [5] = test: proportion of transgene (GFP) expressing cells by flow cytometry; format: cell-based; settings: 1 μg pEGFP/(PKKKRKVG)4 complexes (N/P 8), 24 hours
# Procedure: (A, B, D, E) Flow cytometry of 16HBE14o-cells transfected with DNA (pEGFP) or DNA complexed with (PKKKRKVG)4. Transfection was stopped after 24 hours. Cells were treated with trypsin and resuspended in medium. FCS: Forward scatter. FH-1: green channel for the GFP signal. (A, B) Control. Cells were only transfected with 1 μg pEGFP. Mean: 5.66. M1: 96% of total cells. M2: 4% of total cells. (D, E) Transfection with 1 μg pEGFP/(PKKKRKVG)4 complexes (N/P 8). Mean: 10.25. M1: 55% of total cells. M2: 45% of total cells. Near half the cell population expresses green fluorescence protein. (C, F) Fluorescence microscopy images of HeLa S6 cells transfected with (C) 1 μg pEGFP or (F) 1 μg pEGFP complexed with (PKKKRKVG)4 (N/P 8). Images were taken with a 40× objective (exposure time: 2 sec).
# It was examined how many cells express the transgene product. 16HBE14o-cells were transfected with 1 μg pEGFP/(PKKKRKVG)4 complexes N/P 8 (24 hours) and measured by flow cytometry.
# COS7 cells [6] = test: effect of peptide on gene transfer mediated by PEI, fractured Dendrimers and Lipofectamine; format: cell-based
# COS7 cells [7] = test: transfection efficiency at 4° C. compared with 37° C.; format: cell-based; settings: 4 h transfection, COS7, luciferase after 24 h
# Procedure: Cells were transfected with 1 μg of CMVL-W complexed with C(YGRKKRRQRRRG)24 at N/P=10 for 4 h at 4° C. or at 37° C. Luciferase activity was measured (10 sec) after 24 h.
# At low temperatures such as 4° C. energy-dependent processes like the endosomal uptake are suppressed. For this reason transfection efficiency at 4° C. could be an indicator for the extend of endosomal uptake which takes place during the transfection period. Transfection was performed in the way as described above but for the 4° C. experiment the 24 well plate was incubated in a cool room at 4° C. for 4 h.
substance,measurement,setting,value
wheat germ agglutinin,nuclear transport of covalently coupled BSA-BODIPY,HeLa S6 cells [1],no signal was seen in the nucleus
(PKTKRKVG)4: tetramer containing mutant large T-NLS (SEQ ID NO: 6); threonin mutant known to be transport deficient [reference compound],location of plasmid DNA by CLSM,HeLa S6 cells [2]; 2 hours,arranged around the nuclear membrane
same,nuclear localization of plasmid DNA,HeLa S6 cells [2]; 2 hours,nuclear localization of plasmid DNA was not seen
same,location of plasmid DNA by CLSM,HeLa S6 cells [2]; 24 hours,arranged around the nuclear membrane
same,cells showing signals in the nuclear region,HeLa S6 cells [2]; 24 hours,14.7%
same,nuclear transport of covalently coupled BSA-BODIPY,HeLa S6 cells [1],no signal was seen in the nucleus
same,gene transfer efficiency compared with (PKKKRKVG)4/DNA complexes,16HBE14o-cells [3],significantly lower gene transfer efficiency
"(PKKKRKVG)4: tetramer of the wild-type SV40 large T-antigen NLS PKKKRKV with a glycin added at the end of each NLS (SEQ ID NO: 5) (also: tetramer of PKKKRKVG, linkage not given here)",inhibition of gene transfer of DNA/(PKKKRKVG)4 complexes by free peptide,16HBE14o-cells [4],complete blockade of gene transfer
same,localization of complexes after 4 h,16HBE14o cells; 4 h,most of the complexes were outside the nucleus
same,localization of peptide and DNA after 30 h,16HBE14o cells; 30 h,could be found in the nucleus
same,DNA protection of complexed DNA against DNase I digestion,DNase I,still can bee seen
same,location of plasmid DNA by CLSM,HeLa S6 cells [2]; 2 hours,already plasmid DNA in the nucleus
same,nuclear localization of plasmid DNA,HeLa S6 cells [2]; 2 hours,plasmid DNA could be detected within the nuclear region
same,location of plasmid DNA by CLSM,HeLa S6 cells [2]; 24 hours,accumulated in the nucleus
same,cells showing signals in the nuclear region,HeLa S6 cells [2]; 24 hours,68.9%
same,M1 of total cells,16HBE14o-cells [5],55%
same,M2 of total cells,16HBE14o-cells [5],45%
same,"Mean (GFP signal, flow cytometry)",16HBE14o-cells [5],10.25
same,cells showing a GFP signal,16HBE14o-cells [5],Approximately 50%
same,nuclear transport of covalently coupled BSA-BODIPY,HeLa S6 cells [1],transports the coupled BSA into the nucleus
same,cell transfection compared with DNA/Dendrimer-complexes,16HBE14o-cells [3],cell transfection as high as with DNA/Dendrimer-complexes
same,cell transfection higher as with DNA/poly-L-lysine 2.9 kD/INF7a complexes,16HBE14o-cells [3],1000 fold
same,enhancement of cell transfection compared to studies without endosomolytic agents,16HBE14o-cells [3],10 fold
same,transfection rates compared with different non-viral vectors,"16HBE14o-cells [3]; 1 μg CMVL-W, 4.8 μg (PKKKRKVG)4 (N/P 8), luciferase after 24 h",almost as high transfection rates as with Dendrimer/DNA complexes
same,increase of relative light units (RLU) per mg cell protein in comparison to poly-L-lysine,"16HBE14o-cells [3]; 1 μg CMVL-W, vs poly-L-lysine 2.9 kD/DNA complexes, luciferase after 24 h",100 fold
same,transfection results in comparison to transfections without (PKKKRKVG)4,"16HBE14o-cells [3]; 100% confluent cells, CMVL-W/Dendrimer complexes plus (PKKKRKVG)4",10 fold
same,effect of added (PKKKRKVG)4 on transfection efficiency of PEI/CMVL-W and Dendrimer/CMVL-W complexes,16HBE14o-cells [3]; added in increasing concentrations to polymer/DNA complexes,significant increase of transfection efficiency
"C(YGRKKRRQRRRG)2: dimer of HIV-1 TAT protein transduction domain YGRKKRRQRRR with G, N-terminal C (SEQ ID NO: 30) (CYGRKKRRQRRRG; also: dimer: C(YGRKKRRQRRRG)2, linkage not given here)",effect on gene transfer mediated by PEI,"COS7 cells [6]; peptide N/P=1, then PEI 25 kD N/P 10",enhances gene transfer
same,effect on gene transfer mediated by fractured dendrimers,"COS7 cells [6]; peptide N/P=1, then fractured Dendrimer N/P 4.5",enhances gene transfer
same,decrease of transfection efficiency at 4° C. compared to 37° C.,COS7 cells [7],19 fold
